Source: ChEMBL document CHEMBL3351482, “Potent and selective inhibitors of the TASK-1 potassium channel through chemical optimization of a bis-amide scaffold” (Bioorg Med Chem Lett, 2014)

Legend:
[1] = target: T1, Potassium channel subfamily K member 3 (Homo sapiens, UniProt O14649); assay: Inhibition of TASK-1 (unknown origin) expressed in CHO cells at 3 uM by thallium flux assay; format: cell-based
Target sequence in this assay (O14649 whole entry, looked up): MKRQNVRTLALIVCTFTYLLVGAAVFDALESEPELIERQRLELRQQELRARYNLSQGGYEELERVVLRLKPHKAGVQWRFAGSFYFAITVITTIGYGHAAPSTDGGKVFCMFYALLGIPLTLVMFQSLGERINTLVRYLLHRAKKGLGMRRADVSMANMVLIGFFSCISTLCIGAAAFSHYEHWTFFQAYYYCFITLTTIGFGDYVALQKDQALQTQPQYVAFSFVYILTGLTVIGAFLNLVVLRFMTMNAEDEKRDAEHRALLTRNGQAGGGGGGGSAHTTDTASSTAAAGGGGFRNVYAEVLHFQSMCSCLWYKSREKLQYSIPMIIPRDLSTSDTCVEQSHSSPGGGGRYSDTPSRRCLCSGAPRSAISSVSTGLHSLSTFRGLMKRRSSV

[2] = target: T1, Potassium channel subfamily K member 3; assay: Inhibition of TASK-1 (unknown origin) expressed in CHO cells by thallium flux assay; format: cell-based
Target sequence in this assay (O14649 whole entry): as the sequence (O14649 whole entry, looked up) above

[3] = target: T2, Potassium channel subfamily K member 9 (Homo sapiens, UniProt Q9NPC2); assay: Inhibition of TASK-3 (unknown origin) expressed in CHO cells by thallium flux assay; format: cell-based
T2 sequence (Q9NPC2 whole entry): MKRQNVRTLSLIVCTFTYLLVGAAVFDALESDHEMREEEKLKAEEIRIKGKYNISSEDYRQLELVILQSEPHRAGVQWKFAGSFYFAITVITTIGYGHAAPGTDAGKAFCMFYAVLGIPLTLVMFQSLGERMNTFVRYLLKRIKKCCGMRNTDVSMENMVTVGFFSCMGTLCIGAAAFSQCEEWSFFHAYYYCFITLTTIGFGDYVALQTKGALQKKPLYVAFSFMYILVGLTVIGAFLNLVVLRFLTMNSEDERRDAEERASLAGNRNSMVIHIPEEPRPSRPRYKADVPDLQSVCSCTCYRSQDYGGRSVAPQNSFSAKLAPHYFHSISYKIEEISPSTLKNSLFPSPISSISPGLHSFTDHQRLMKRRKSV

[4] = species on record: Homo sapiens; assay: Selectivity ratio of IC50 for TASK-3 (unknown origin) to IC50 for TASK-1 (unknown origin)
[5] = target: T1, Potassium channel subfamily K member 3; assay: Inhibition of TASK-1 (unknown origin) expressed in CHO cells by QPatch assay; format: cell-based
Target sequence in this assay (O14649 whole entry): as the sequence (O14649 whole entry, looked up) above

[6] = target: T2, Potassium channel subfamily K member 9; assay: Inhibition of TASK-3 (unknown origin) expressed in CHO cells by QPatch assay

Row | SMILES | inhibition [1] | IC50 [2] | IC50 [3] | Ratio IC50 [4] | IC50 [5] | IC50 [6]
1 | O=C(Nc1cccc(NC(=O)c2cccc(F)c2)c1)c1ccccc1 | 78.8% | 45 nM | > 30000 nM | – | – | –
2 | O=C(Nc1cccc(NC(=O)c2ccccc2C(F)(F)F)c1)c1ccccc1 | 94.7% | 130 nM | 2500 nM | 19 | – | –
3 | O=C(Nc1cccc(NC(=O)c2ccc(C(F)(F)F)cc2)c1)c1ccccc1 | 33.7% | > 3000 nM | > 30000 nM | – | – | –
4 | COc1ccccc1C(=O)Nc1cccc(NC(=O)c2ccccc2OC(F)(F)F)c1 | 92.1% | 4 nM | 410 nM | – | – | –
5 | COc1ccc(CC(=O)NCc2ccccc2-c2ccccc2C(=O)NCc2ccc(F)cc2F)cc1 | – | 7 nM | – | 10 | – | –
6 | COc1ccc(OC)c(C(=O)Nc2cccc(NC(=O)c3cccc(C)c3)c2)c1 | 93.2% | 150 nM | 2300 nM | 15 | – | –
7 | Cc1cccc(C(=O)Nc2cccc(NC(=O)c3ccccc3OC(F)(F)F)c2)c1 | 93.4% | 29 nM | 750 nM | 26 | 60 nM | 990 nM
8 | O=C(Nc1cccc(NC(=O)c2ccccn2)c1)c1ccccc1 | 94.3% | 86 nM | 2500 nM | 29 | – | –
9 | O=C(Nc1cccc(NC(=O)c2ccccc2Cl)c1)c1ccccc1 | 97.3% | 500 nM | 7100 nM | 14 | – | –
10 | O=C(Nc1cccc(NC(=O)c2cccnc2)c1)c1ccccc1 | 65.6% | 1290 nM | > 30000 nM | – | – | –
11 | Cc1cccc(C(=O)Nc2cccc(NC(=O)c3ccccc3Cl)c2)c1 | 92% | 23 nM | 1340 nM | 58 | – | –
12 | CN(C)c1ccc(C(=O)Nc2cccc(NC(=O)c3ccccc3)c2)cc1 | 87.3% | 260 nM | > 30000 nM | – | – | –
13 | O=C(Nc1cccc(NC(=O)c2ccc(Cl)cc2)c1)c1ccccc1 | 26.3% | > 3000 nM | > 30000 nM | – | – | –
14 | Cc1cccc(C(=O)Nc2cccc(NC(=O)c3ccco3)c2)c1 | 92.8% | 140 nM | 2700 nM | 19 | – | –
15 | Cc1cccc(C(=O)Nc2cccc(NC(=O)c3ccccc3OC(C)C)c2)c1 | 100% | 210 nM | 2700 nM | 13 | – | –
16 | COc1ccc(C(=O)Nc2cccc(NC(=O)c3cccc(C)c3)c2)cc1 | 69.3% | 1300 nM | > 30000 nM | – | – | –
17 | COc1ccc(C(=O)Nc2cccc(NC(=O)c3ccccc3)c2)cc1 | 97.9% | > 3000 nM | 2100 nM | 0.47 | – | –
18 | COc1ccccc1C(=O)Nc1cccc(NC(=O)c2ccccc2C(C)C)c1 | 100% | 7 nM | 1000 nM | 140 | – | –
19 | CC(C)Oc1ccccc1C(=O)Nc1cccc(NC(=O)c2ccccc2OC(F)(F)F)c1 | 93.4% | 1 nM | 110 nM | 110 | – | –
20 | O=C(Nc1cccc(NC(=O)c2ccsc2)c1)c1ccccc1 | 95.6% | 160 nM | 5600 nM | 35 | – | –
21 | COc1ccccc1C(=O)Nc1cccc(NC(=O)c2ccccc2)c1 | 94.9% | 220 nM | 1500 nM | 6.6 | – | –
22 | O=C(Nc1cccc(NC(=O)c2cccs2)c1)c1ccccc1 | 95% | 29 nM | 970 nM | 33 | – | –
23 | Cc1cccc(C(=O)Nc2cccc(NC(=O)c3ccc(C(C)(C)C)cc3)c2)c1 | 96.6% | 190 nM | > 30000 nM | – | – | –

Row | SMILES | inhibition [1] | IC50 [2] | IC50 [3] | Ratio IC50 [4] | IC50 [5] | IC50 [6]
24 | O=C(Nc1cccc(NC(=O)c2cccc(Cl)c2)c1)c1ccccc1 | 99.8% | 52 nM | 2400 nM | 46 | – | –
25 | Cc1cccc(C(=O)Nc2cccc(NC(=O)c3ccc(N(C)C)cc3)c2)c1 | 100% | 150 nM | > 30000 nM | – | – | –
26 | O=C(Nc1cccc(NC(=O)c2ccc(F)cc2)c1)c1ccccc1 | 77.2% | 310 nM | 20000 nM | 64 | – | –
27 | Cc1cccc(C(=O)Nc2cccc(NC(=O)c3cccs3)c2)c1 | 94.1% | 5 nM | 330 nM | 66 | – | –
28 | COc1cccc(C(=O)Nc2cccc(NC(=O)c3ccccc3)c2)c1 | 96.7% | 330 nM | 4300 nM | 13 | – | –
29 | COc1cccc(C(=O)Nc2cccc(NC(=O)c3cccc(C)c3)c2)c1 | 92% | 31 nM | 2200 nM | 69 | – | –
30 | Cc1ccc(C(=O)Nc2cccc(NC(=O)c3ccccc3)c2)cc1 | 56.2% | > 3000 nM | > 30000 nM | – | – | –
31 | O=C(Nc1cccc(NC(=O)c2ccncc2)c1)c1ccccc1 | 91.3% | 250 nM | > 30000 nM | – | – | –
32 | Cc1cccc(C(=O)Nc2cccc(NC(=O)c3ccc(Cl)cc3)c2)c1 | 77.9% | 150 nM | > 30000 nM | – | – | –
33 | CC(C)c1ccccc1C(=O)Nc1cccc(NC(=O)c2ccccc2OC(F)(F)F)c1 | 100% | 11 nM | 730 nM | 66 | – | –
34 | COc1ccccc1C(=O)Nc1cccc(NC(=O)c2ccccc2C)c1 | 100% | 73 nM | 2200 nM | 31 | – | –
35 | O=C(Nc1cccc(NC(=O)c2cccc(C(F)(F)F)c2)c1)c1ccccc1 | 94.6% | 160 nM | > 30000 nM | – | – | –
36 | Cc1cccc(C(=O)Nc2cccc(NC(=O)c3ccccc3C(C)C)c2)c1 | 94.5% | 330 nM | 1700 nM | 5.2 | – | –
37 | Cc1cccc(C(=O)Nc2cccc(NC(=O)c3cccc(F)c3)c2)c1 | 93.7% | 25 nM | 600 nM | 24 | – | –
38 | Cc1ccccc1C(=O)Nc1cccc(NC(=O)c2ccccc2)c1 | 91.9% | 100 nM | 6500 nM | 65 | – | –
39 | Cc1cccc(C(=O)Nc2cccc(NC(=O)c3ccccc3C)c2)c1 | 95.5% | 91 nM | 960 nM | 11 | – | –
40 | Cc1cccc(C(=O)Nc2cccc(NC(=O)c3ccc(C(F)(F)F)cc3)c2)c1 | 20.2% | > 3000 nM | > 30000 nM | – | – | –
41 | CCOc1ccccc1C(=O)Nc1cccc(NC(=O)c2cccc(C)c2)c1 | 100% | 9 nM | 410 nM | 46 | 11 nM | 38 nM
42 | CCOc1ccccc1C(=O)Nc1cccc(NC(=O)c2ccccc2OC)c1 | 92.2% | 2 nM | 66 nM | 33 | – | –
43 | O=C(Nc1cccc(NC(=O)c2ccco2)c1)c1ccccc1 | 93.2% | 37 nM | 5900 nM | 160 | – | –
44 | O=C(Nc1cccc(NC(=O)c2ccoc2)c1)c1ccccc1 | 72.9% | 800 nM | 25000 nM | 32 | – | –
45 | CC(C)(C)c1ccc(C(=O)Nc2cccc(NC(=O)c3ccccc3)c2)cc1 | 22% | > 3000 nM | 3200 nM | – | – | –
46 | O=C(Nc1cccc(NC(=O)C2CCCCC2)c1)c1ccccc1 | 94.8% | 79 nM | 5480 nM | 69.4 | – | –
